{"source": "PubChem BioAssay (NCI)", "test_in_all_cases": "DTP human tumour cell line panel, 48 h", "key": {"SF-539 CNS": {"tested_on": "SF-539 CNS"}, "K-562 leukemia": {"tested_on": "K-562 leukemia"}, "LOX IMVI melanoma": {"tested_on": "LOX IMVI melanoma"}, "ACHN renal": {"tested_on": "ACHN renal"}, "UO-31 renal": {"tested_on": "UO-31 renal"}, "HCC-2998 colon": {"tested_on": "HCC-2998 colon"}, "DU-145 prostate": {"tested_on": "DU-145 prostate"}, "SF-295 CNS": {"tested_on": "SF-295 CNS"}, "PC-3 prostate": {"tested_on": "PC-3 prostate"}, "SNB-75 CNS": {"tested_on": "SNB-75 CNS"}, "HOP-62 NSCLC": {"tested_on": "HOP-62 NSCLC"}, "MOLT-4 leukemia": {"tested_on": "MOLT-4 leukemia"}, "UACC-62 melanoma": {"tested_on": "UACC-62 melanoma"}, "HCT-116 colon": {"tested_on": "HCT-116 colon"}, "IGROV1 ovarian": {"tested_on": "IGROV1 ovarian"}, "HS 578T breast": {"tested_on": "HS 578T breast"}, "OVCAR-5 ovarian": {"tested_on": "OVCAR-5 ovarian"}, "RXF 393 renal": {"tested_on": "RXF 393 renal"}, "SN12C renal": {"tested_on": "SN12C renal"}, "CCRF-CEM leukemia": {"tested_on": "CCRF-CEM leukemia"}, "NCI-H460 lung": {"tested_on": "NCI-H460 lung"}, "TK-10 renal": {"tested_on": "TK-10 renal"}, "A498 renal": {"tested_on": "A498 renal"}, "MCF7 breast": {"tested_on": "MCF7 breast"}, "HL-60(TB) leukemia": {"tested_on": "HL-60(TB) leukemia"}, "786-0 renal": {"tested_on": "786-0 renal"}, "MALME-3M melanoma": {"tested_on": "MALME-3M melanoma"}, "CAKI-1 renal": {"tested_on": "CAKI-1 renal"}, "NCI/ADR-RES ovarian": {"tested_on": "NCI/ADR-RES ovarian"}, "HCT-15 colon": {"tested_on": "HCT-15 colon"}, "MDA-MB-435": {"tested_on": "MDA-MB-435"}, "M14 melanoma": {"tested_on": "M14 melanoma"}, "T-47D breast": {"tested_on": "T-47D breast"}, "HOP-92 NSCLC": {"tested_on": "HOP-92 NSCLC"}, "NCI-H23 lung": {"tested_on": "NCI-H23 lung"}, "SK-OV-3 ovarian": {"tested_on": "SK-OV-3 ovarian"}, "SF-268 CNS": {"tested_on": "SF-268 CNS"}, "SK-MEL-28 melanoma": {"tested_on": "SK-MEL-28 melanoma"}}, "note": "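All cell lines were grown in 96-well plates and treated with compound for 48 hours. Abbreviation: GI50, concentration required for 50% inhibition of growth. TGI marks complete inhibition of growth.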"}
{"smiles": "NC(N)=Nc1ccc(Oc2cccc(Nc3ccc(Cl)c(C(F)(F)F)c3)c2)cc1", "values": [{"measurement": "GI50", "setting": "SF-539 CNS", "result": 1710, "unit": "nM"}, {"measurement": "TGI", "setting": "SF-539 CNS", "result": 3140, "unit": "nM"}, {"measurement": "GI50", "setting": "K-562 leukemia", "result": 2500, "unit": "nM"}, {"measurement": "TGI", "setting": "K-562 leukemia", "result": 6510, "unit": "nM"}, {"measurement": "GI50", "setting": "LOX IMVI melanoma", "result": 1690, "unit": "nM"}, {"measurement": "TGI", "setting": "LOX IMVI melanoma", "result": 3150, "unit": "nM"}, {"measurement": "GI50", "setting": "ACHN renal", "result": 2790, "unit": "nM"}, {"measurement": "TGI", "setting": "ACHN renal", "result": 8470, "unit": "nM"}, {"measurement": "GI50", "setting": "UO-31 renal", "result": 2950, "unit": "nM"}, {"measurement": "TGI", "setting": "UO-31 renal", "result": 11700, "unit": "nM"}, {"measurement": "GI50", "setting": "HCC-2998 colon", "result": 1750, "unit": "nM"}, {"measurement": "TGI", "setting": "HCC-2998 colon", "result": 3240, "unit": "nM"}, {"measurement": "GI50", "setting": "DU-145 prostate", "result": 1980, "unit": "nM"}, {"measurement": "TGI", "setting": "DU-145 prostate", "result": 3720, "unit": "nM"}, {"measurement": "GI50", "setting": "SF-295 CNS", "result": 1660, "unit": "nM"}, {"measurement": "TGI", "setting": "SF-295 CNS", "result": 3210, "unit": "nM"}, {"measurement": "GI50", "setting": "PC-3 prostate", "result": 1540, "unit": "nM"}, {"measurement": "TGI", "setting": "PC-3 prostate", "result": 3000, "unit": "nM"}, {"measurement": "GI50", "setting": "SNB-75 CNS", "result": 1200, "unit": "nM"}, {"measurement": "TGI", "setting": "SNB-75 CNS", "result": 2500, "unit": "nM"}, {"measurement": "GI50", "setting": "HOP-62 NSCLC", "result": 1600, "unit": "nM"}, {"measurement": "TGI", "setting": "HOP-62 NSCLC", "result": 3160, "unit": "nM"}, {"measurement": "GI50", "setting": "MOLT-4 leukemia", "result": 1950, "unit": "nM"}, {"measurement": "TGI", "setting": "MOLT-4 leukemia", "result": 4570, "unit": "nM"}, {"measurement": "GI50", "setting": "UACC-62 melanoma", "result": 1750, "unit": "nM"}, {"measurement": "TGI", "setting": "UACC-62 melanoma", "result": 3230, "unit": "nM"}, {"measurement": "GI50", "setting": "HCT-116 colon", "result": 1620, "unit": "nM"}, {"measurement": "TGI", "setting": "HCT-116 colon", "result": 3130, "unit": "nM"}, {"measurement": "GI50", "setting": "IGROV1 ovarian", "result": 1270, "unit": "nM"}, {"measurement": "TGI", "setting": "IGROV1 ovarian", "result": 2740, "unit": "nM"}, {"measurement": "GI50", "setting": "HS 578T breast", "result": 1930, "unit": "nM"}, {"measurement": "TGI", "setting": "HS 578T breast", "result": 4620, "unit": "nM"}, {"measurement": "GI50", "setting": "OVCAR-5 ovarian", "result": 1560, "unit": "nM"}, {"measurement": "TGI", "setting": "OVCAR-5 ovarian", "result": 2940, "unit": "nM"}, {"measurement": "GI50", "setting": "RXF 393 renal", "result": 1620, "unit": "nM"}, {"measurement": "TGI", "setting": "RXF 393 renal", "result": 3050, "unit": "nM"}, {"measurement": "GI50", "setting": "SN12C renal", "result": 1690, "unit": "nM"}, {"measurement": "TGI", "setting": "SN12C renal", "result": 3450, "unit": "nM"}, {"measurement": "GI50", "setting": "CCRF-CEM leukemia", "result": 2680, "unit": "nM"}, {"measurement": "TGI", "setting": "CCRF-CEM leukemia", "result": 8960, "unit": "nM"}, {"measurement": "GI50", "setting": "NCI-H460 lung", "result": 1880, "unit": "nM"}, {"measurement": "TGI", "setting": "NCI-H460 lung", "result": 3560, "unit": "nM"}, {"measurement": "GI50", "setting": "TK-10 renal", "result": 1940, "unit": "nM"}, {"measurement": "TGI", "setting": "TK-10 renal", "result": 4750, "unit": "nM"}, {"measurement": "GI50", "setting": "A498 renal", "result": 1640, "unit": "nM"}, {"measurement": "TGI", "setting": "A498 renal", "result": 3200, "unit": "nM"}, {"measurement": "GI50", "setting": "MCF7 breast", "result": 1720, "unit": "nM"}, {"measurement": "TGI", "setting": "MCF7 breast", "result": 3480, "unit": "nM"}, {"measurement": "GI50", "setting": "HL-60(TB) leukemia", "result": 1990, "unit": "nM"}, {"measurement": "TGI", "setting": "HL-60(TB) leukemia", "result": 4290, "unit": "nM"}, {"measurement": "GI50", "setting": "786-0 renal", "result": 1620, "unit": "nM"}, {"measurement": "TGI", "setting": "786-0 renal", "result": 3190, "unit": "nM"}, {"measurement": "GI50", "setting": "MALME-3M melanoma", "result": 1720, "unit": "nM"}, {"measurement": "TGI", "setting": "MALME-3M melanoma", "result": 3680, "unit": "nM"}, {"measurement": "GI50", "setting": "CAKI-1 renal", "result": 1730, "unit": "nM"}, {"measurement": "TGI", "setting": "CAKI-1 renal", "result": 3570, "unit": "nM"}, {"measurement": "GI50", "setting": "NCI/ADR-RES ovarian", "result": 14800, "unit": "nM"}, {"measurement": "TGI", "setting": "NCI/ADR-RES ovarian", "result": 34300, "unit": "nM"}, {"measurement": "GI50", "setting": "HCT-15 colon", "result": 1920, "unit": "nM"}, {"measurement": "TGI", "setting": "HCT-15 colon", "result": 4360, "unit": "nM"}, {"measurement": "GI50", "setting": "MDA-MB-435", "result": 1670, "unit": "nM"}, {"measurement": "TGI", "setting": "MDA-MB-435", "result": 3080, "unit": "nM"}, {"measurement": "GI50", "setting": "M14 melanoma", "result": 1820, "unit": "nM"}, {"measurement": "TGI", "setting": "M14 melanoma", "result": 3450, "unit": "nM"}, {"measurement": "GI50", "setting": "T-47D breast", "result": 1750, "unit": "nM"}, {"measurement": "TGI", "setting": "T-47D breast", "result": 3950, "unit": "nM"}, {"measurement": "GI50", "setting": "HOP-92 NSCLC", "result": 1290, "unit": "nM"}, {"measurement": "TGI", "setting": "HOP-92 NSCLC", "result": 2650, "unit": "nM"}, {"measurement": "GI50", "setting": "NCI-H23 lung", "result": 1710, "unit": "nM"}, {"measurement": "TGI", "setting": "NCI-H23 lung", "result": 3210, "unit": "nM"}, {"measurement": "GI50", "setting": "SK-OV-3 ovarian", "result": 2690, "unit": "nM"}, {"measurement": "TGI", "setting": "SK-OV-3 ovarian", "result": 6670, "unit": "nM"}, {"measurement": "GI50", "setting": "SF-268 CNS", "result": 1580, "unit": "nM"}, {"measurement": "TGI", "setting": "SF-268 CNS", "result": 3050, "unit": "nM"}, {"measurement": "GI50", "setting": "SK-MEL-28 melanoma", "result": 1740, "unit": "nM"}, {"measurement": "TGI", "setting": "SK-MEL-28 melanoma", "result": 3160, "unit": "nM"}]}
